Laboratory results as given in US11180503B2, “[1,2,4]Triazolo[4,3-A]pyrazin-6(5H)-one derivatives” (Eli Lilly and Company, priority 2017, dated 2021).

Columns and labels:
Format in all cases: biochemical
human PDE1C = human PDE1C (Homo sapiens (Human), UniProt Q14123); assay: Ca2+-calmodulin dependent PDE enzyme assay (radiometric SPA, [3H]cAMP); conditions: human PDE1C 0.0012 nM, [3H]cAMP 47 nM; read-out: PDE 1C IC50
Text: (§1) The nucleotide sequences encoding full-length human PDE1A (NP_001003683.1) and PDE1C (NP_005011.1) are inserted into pFastBac1 (Invitrogen) vector with an N-terminal HIS tag. The nucleotide sequences encoding full-length human PDE4D (NP_006194.2) and catalytic domain (residue 641-1141) of PDE3A (NP_000912.3) are inserted into pFastBac1 (Invitrogen) vector with a C-terminal HIS tag. The nucleotide sequences encoding full-length human PDE6A (NP_000431.2) and PDE6B (AAH00249.1) are inserted into pFastBacDual (Invitrogen) vector with an N-terminal HIS tag and N-terminal Flag tag, respectively, for production of PDE6A/6B dimer. Baculovirus generation and protein expression in Sf9 cells are carried out according to the protocol of Bac-to-Bac Baculovirus Expression system (Invitrogen). The nucleotide sequence encoding full-length human PDE1B (NP_000915.1) is inserted into pIEX4 (Novagen) with a C-terminal HIS tag, and both protein productions in Sf9 cells are carried out according to the vendor's protocol (Novagen). The His tagged PDE proteins are purified using Ni-NTA agarose (Qiagen) followed by size exclusion chromatography on a SUPERDEX® 200 column (GE Healthcare) in storage buffer (20 mM Tris-HCl, pH7.5, 150 mM NaCl, 10% Glycerol). The Flag tagged PDE proteins including PDE6A/6B are purified using anti-Flag M2-agarose (Sigma), after purification through NiNTA column chromatography and eluted in storage buffer (50 mM Tris-HCl, pH7.5, 150 mM NaCl, 10% Glycerol, 0.1 mg/ml Flag peptide). All purified proteins are stored at −80° C. in small aliquots.
(§2) All 3′,5′ cyclic nucleotide phosphodiesterase (PDE) enzyme activities are measured with a radiometric enzyme assay based on SPA detection system (scintillation proximity assay). Compounds to be tested are diluted in pure dimethyl sulfoxide (DMSO) using ten point concentration response curves. Maximal compound concentration in the reaction mixture is either 10 or 100 μM. Compounds at the appropriate concentration are pre-incubated with either of the PDE enzymes for 30 minutes before the reaction is started by the addition of substrate. Reactions are allowed to proceed for 60 minutes at room temperature. Next, reactions are stopped by addition of SPA beads. Samples are read 12 hours later in a MICROBETA™ TRILUX® Counter. “IC50” refers to the concentration of the compound that produces 50% of the maximal inhibitory response possible for that compound. IC50 values are calculated by plotting the normalized data vs. log [compound] and fitting the data using a four parameter logistic equation.
(§3) PDE1B, PDE1A, and PDE1C are cloned and purified following standard protein generation procedures. The assay buffer is prepared to give a final concentration in the assay of 50 mM Tris-HCl, 50 mM MgCl2, 4 mM CaCl2, 0.1% Bovine serum albumin and 6 U/ml Calmodulin in water, at pH 7.5. The final enzyme concentration is 0.25, 0.074 and 0.0012 nM, for PDE1A, PDE1B and PDE1C respectively. The reactions are started by addition of the substrate, [^3H]cAMP, to give a final concentration of 47 nM.

human PDE1A = human PDE1A (Homo sapiens (Human), UniProt P54750); assay: as above; conditions: human PDE1A 0.25 nM, [3H]cAMP 47 nM; read-out: PDE 1A IC50
Text: as §1, §2, §3

human PDE1B = human PDE1B (Homo sapiens (Human), UniProt Q01064); assay: as above; conditions: human PDE1B 0.074 nM, [3H]cAMP 47 nM; read-out: PDE 1B IC50
Text: as §1, §2, §3

human PDE6A/6B = human PDE6A/6B (Homo sapiens (Human), UniProt P16499+P35913); assay: PDE enzyme assay using [3H]cGMP as substrate (radiometric SPA); conditions: human PDE6A/6B dimer 5 nM, [3H]cGMP 80 nM; read-out: PDE 6AB IC50
Text: as §1, §2
The following phosphodiesterase activities are measured using [^3H]cGMP as reaction substrate: human PDE6A/6B. The catalytic active form of human PDE6 is a dimer composed of a α (human PDE6A) and β subunits (human PDE6B). The dimer of human PDE6A/6B is produced by the coexpression and purification strategy, using two purification steps, i.e., NiNTA and anti-FLAG Sepharose chromatography. The assay buffer is prepared to give a final concentration in the assay of 50 mM Tris-HCl, 8.3 mM MgCl2, 1.7 mM EDTA and 0.1% Bovine serum albumin at pH 7.5. The final enzyme concentration is 5 nM. The reactions are started by addition of the substrate, [^3H]cGMP, to give a final concentration of 80 nM.

human PDE4D = human PDE4D (Homo sapiens (Human), UniProt Q08499); assay: PDE enzyme assay using [3H]cAMP as substrate (radiometric SPA); conditions: human PDE4D 0.021 nM, [3H]cAMP 47 nM; read-out: PDE 4D IC50
Text: as §1, §2
(§4) The following phosphodiesterase activities are measured using [^3H]cAMP as reaction substrate: human PDE3A (catalytic domain) and human PDE4D. Both enzymes are cloned and purified following standard procedures. The assay buffer is prepared to give a final concentration in the assay of 50 mM Tris-HCl, 8.3 mM MgCl2, 1.7 mM ethylenediaminetetraacetic acid (EDTA) and 0.1% Bovine serum albumin at pH 7.5. Final enzyme concentrations are 0.008 and 0.021 nM for PDE3A and PDE4D, respectively. Reactions are started by addition of the substrate, [^3H]cAMP, to give a final concentration of 47 nM.

[1] = target: human PDE3A (catalytic domain) (Homo sapiens (Human), UniProt Q14432); assay: as above; conditions: human PDE3A catalytic domain 0.008 nM, [3H]cAMP 47 nM
Text: as §1, §2, §4

Chain of human PDE6A/6B (P16499 whole entry, change not shown): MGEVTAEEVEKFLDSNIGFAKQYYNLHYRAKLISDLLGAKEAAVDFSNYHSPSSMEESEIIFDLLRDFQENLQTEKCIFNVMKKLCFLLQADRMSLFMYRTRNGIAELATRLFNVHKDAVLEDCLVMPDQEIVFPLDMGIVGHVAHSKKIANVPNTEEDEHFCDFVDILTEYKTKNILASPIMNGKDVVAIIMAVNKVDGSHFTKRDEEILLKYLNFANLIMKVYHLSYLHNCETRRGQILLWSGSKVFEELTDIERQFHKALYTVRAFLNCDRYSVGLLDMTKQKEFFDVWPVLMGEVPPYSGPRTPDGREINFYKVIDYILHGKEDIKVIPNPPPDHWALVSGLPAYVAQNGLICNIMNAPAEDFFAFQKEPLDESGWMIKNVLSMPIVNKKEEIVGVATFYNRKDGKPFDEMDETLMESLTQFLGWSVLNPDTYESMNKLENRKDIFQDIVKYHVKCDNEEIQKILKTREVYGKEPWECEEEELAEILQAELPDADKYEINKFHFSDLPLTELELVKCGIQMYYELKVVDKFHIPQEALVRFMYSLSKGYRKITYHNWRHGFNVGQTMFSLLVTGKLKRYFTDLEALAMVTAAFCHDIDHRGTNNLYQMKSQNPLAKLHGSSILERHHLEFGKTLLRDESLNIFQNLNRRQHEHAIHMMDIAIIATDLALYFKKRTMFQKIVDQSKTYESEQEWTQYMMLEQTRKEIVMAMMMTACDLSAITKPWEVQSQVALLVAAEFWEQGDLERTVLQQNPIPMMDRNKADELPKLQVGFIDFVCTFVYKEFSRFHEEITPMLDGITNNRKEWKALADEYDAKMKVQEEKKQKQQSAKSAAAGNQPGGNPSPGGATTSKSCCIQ
Chain of human PDE6A/6B (P35913 other isoform, or with tags, fused parts or gaps isoform P35913-2): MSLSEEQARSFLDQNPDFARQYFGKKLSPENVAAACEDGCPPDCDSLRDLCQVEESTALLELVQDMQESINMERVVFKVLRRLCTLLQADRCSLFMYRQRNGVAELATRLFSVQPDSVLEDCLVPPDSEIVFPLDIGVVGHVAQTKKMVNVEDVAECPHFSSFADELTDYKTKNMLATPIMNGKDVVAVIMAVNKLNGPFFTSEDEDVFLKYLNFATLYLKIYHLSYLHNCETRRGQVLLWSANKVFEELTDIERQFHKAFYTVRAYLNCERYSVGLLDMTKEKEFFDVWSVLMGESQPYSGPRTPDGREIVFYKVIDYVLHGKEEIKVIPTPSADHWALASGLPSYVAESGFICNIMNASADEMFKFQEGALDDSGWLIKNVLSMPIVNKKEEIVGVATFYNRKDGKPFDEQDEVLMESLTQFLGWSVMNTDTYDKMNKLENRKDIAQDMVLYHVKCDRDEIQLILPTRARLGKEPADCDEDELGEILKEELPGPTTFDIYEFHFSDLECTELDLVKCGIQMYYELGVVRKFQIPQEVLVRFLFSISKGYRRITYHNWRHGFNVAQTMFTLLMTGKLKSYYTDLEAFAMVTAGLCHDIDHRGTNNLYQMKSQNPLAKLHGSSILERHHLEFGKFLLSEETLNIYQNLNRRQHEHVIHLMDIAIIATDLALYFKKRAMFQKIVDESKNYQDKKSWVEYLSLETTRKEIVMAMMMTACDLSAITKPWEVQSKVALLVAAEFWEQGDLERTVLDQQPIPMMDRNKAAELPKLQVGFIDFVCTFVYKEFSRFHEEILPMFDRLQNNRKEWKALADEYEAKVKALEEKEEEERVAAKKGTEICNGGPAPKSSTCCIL
Chain of human PDE4D (Q08499 other isoform, or with tags, fused parts or gaps): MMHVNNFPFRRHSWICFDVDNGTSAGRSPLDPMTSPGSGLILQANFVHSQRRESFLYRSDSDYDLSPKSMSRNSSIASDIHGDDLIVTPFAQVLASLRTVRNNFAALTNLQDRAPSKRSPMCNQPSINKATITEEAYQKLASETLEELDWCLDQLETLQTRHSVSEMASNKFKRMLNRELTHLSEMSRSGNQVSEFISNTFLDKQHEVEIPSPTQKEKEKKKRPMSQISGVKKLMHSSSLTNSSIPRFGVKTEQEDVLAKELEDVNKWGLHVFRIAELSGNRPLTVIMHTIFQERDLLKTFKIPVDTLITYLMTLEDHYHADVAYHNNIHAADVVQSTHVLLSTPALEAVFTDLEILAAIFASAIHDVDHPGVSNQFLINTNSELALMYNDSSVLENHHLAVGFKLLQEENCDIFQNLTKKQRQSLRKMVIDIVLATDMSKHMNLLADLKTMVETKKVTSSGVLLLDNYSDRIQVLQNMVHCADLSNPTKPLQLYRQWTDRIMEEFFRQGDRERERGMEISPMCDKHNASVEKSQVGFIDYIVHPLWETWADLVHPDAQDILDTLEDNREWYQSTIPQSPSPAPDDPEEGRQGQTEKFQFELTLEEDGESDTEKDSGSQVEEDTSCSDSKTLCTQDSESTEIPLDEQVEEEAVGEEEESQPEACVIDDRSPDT
Chain of human PDE3A (catalytic domain) (Q14432 641-1141): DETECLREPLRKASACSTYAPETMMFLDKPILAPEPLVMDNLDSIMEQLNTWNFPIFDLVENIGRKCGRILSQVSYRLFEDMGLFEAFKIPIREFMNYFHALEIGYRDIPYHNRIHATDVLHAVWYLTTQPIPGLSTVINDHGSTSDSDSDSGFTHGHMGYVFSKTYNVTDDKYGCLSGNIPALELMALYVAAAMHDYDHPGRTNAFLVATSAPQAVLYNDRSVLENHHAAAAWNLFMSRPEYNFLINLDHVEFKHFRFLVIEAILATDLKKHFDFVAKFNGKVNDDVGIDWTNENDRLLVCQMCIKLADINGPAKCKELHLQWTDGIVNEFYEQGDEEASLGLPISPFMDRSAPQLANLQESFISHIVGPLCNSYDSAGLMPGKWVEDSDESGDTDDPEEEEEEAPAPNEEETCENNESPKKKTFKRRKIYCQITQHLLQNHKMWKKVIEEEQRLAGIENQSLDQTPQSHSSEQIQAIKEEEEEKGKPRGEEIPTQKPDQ

| SMILES | IC50 (human PDE1C) [nM] | IC50 (human PDE1A) [nM] | IC50 (human PDE1B) [nM] | IC50 (human PDE6A/6B) [µM] | IC50 (human PDE4D) [µM] | IC50 [1] [µM] |
| --- | --- | --- | --- | --- | --- | --- |
| CCC(Cn1c(=O)c2nnc(C3(C4CC4)CC3)n2c2ncccc21)OC (racemic) [Example 4, rac-9-([1,1′-Bi(cyclopropan)]-1-yl)-5-(2-methoxybutyl)-pyrido[3,2-e][1,2,4]triazolo[4,3-a]pyrazin-6(5H)-one] | 0.609 ± 0.128 | 13.9 ± 2.06 | 33.5 ± 6.26 | > 10 | 33.6 | > 100 |
| CCC(Cn1c(=O)c2nnc(C3(C4CC4)CC3)n2c2ncccc21)OC (single isomer, unassigned) [Example 4a, 9-([1,1′-bi(cyclopropan)]-1-yl)-5-(2-methoxybutyl)pyrido[3,2-e][1,2,4]triazolo[4,3-a]pyrazin-6(5H)-one] | 1.49 | 26.8 | 40.1 | > 10 | > 100 | > 100 |
| CCC(Cn1c(=O)c2nnc(C3(C4CC4)CC3)n2c2ncccc21)OC (single isomer, unassigned) [Example 4b, 9-([1,1′-bi(cyclopropan)]-1-yl)-5-(2-methoxybutyl)pyrido[3,2-e][1,2,4]triazolo[4,3-a]pyrazin-6(5H)-one] | 1.46 ± 0.642 | 15.1 ± 2.84 | 25.8 ± 0.614 |  | > 100 |  |
| CCCCn1c(=O)c2nnc(C3(C4CC4)CC3)n2c2ncc(C)cc21 [Example 1, 9-([1,1′-bi(cyclopropan)]-1-yl)-5-butyl-3-methylpyrido[3,2-e][1,2,4]triazolo[4,3-a]pyrazin-6(5H)-one] | < 0.508 | 0.366 ± 0.765 | 0.406 ± 1.08 | ≥ 3.45 | 1.59 ± 0.217 | > 50 |
| CCCCn1c(=O)c2nnc(C3(C(F)(F)F)CC3)n2c2ncc(C)cc21 [Example 2, 5-Butyl-3-methyl-9-(1-(trifluoromethyl)cyclopropyl)pyrido[3,2-e][1,2,4]triazolo[4,3-a]pyrazin-6(5H)-one] | 1.62 ± 0.231 | 8.62 ± 2.53 | 12.1 ± 1.06 | > 10 | 26 | > 100 |
| CCCn1c(=O)c2nnc(C3(C4CC4)CC3)n2c2ncc(C)cc21 [Example 3, 9-([1,1′-Bi(cyclopropan)]-1-yl)-3-methyl-5-propylpyrido[3,2-e][1,2,4]triazolo[4,3-a]pyrazin-6(5H)-one] | 2.77 ± 0.636 | 2.59 ± 1.69 | 3.41 ± 1.52 | > 10 | 2.12 | > 100 |
| O=c1c2nnc(C3(C4CC4)CC3)n2c2nc(O)ccc2n1CC1CC1 [Example 5, 9-([1,1′-bi(cylopropan)]-1-yl)-5-(cyclopropylmethyl)-2-hydroxypyrido[3,2-e][1,2,4]triazolo[4,3-a]pyrazin-6(5H)-one] | 0.931 ± 0.132 | 2.75 ± 2.11 | 2.41 ± 0.846 | > 10 | 14.7 ± 8.24 | 22.9 ± 1.14 |
| CCCCn1c(=O)c2nnc(C3(C)CC3)n2c2ncc(C)cc21 [Example 6, 5-butyl-3-methyl-9-(1-methylcyclopropyl)pyrido[3,2-e][1,2,4]triazolo[4,3-a]pyrazin-6(5H)-one] | 2.57 ± 0.544 | 11.6 ± 7.55 | 15.4 ± 0.0529 | 9.59 | 6.01 | > 100 |
| CCCCn1c(=O)c2nnc(C3(C4CC4)CC3)n2c2nc(C)c(C)cc21 [Example 7, 9-([1,1′-Bi(cyclopropan)]-1-yl)-5-butyl-2,3-dimethylpyrido[3,2-e][1,2,4]triazolo[4,3-a]pyrazin-6(5H)-one] | < 0.5 | 0.343 ± 0.765 | 0.4 ± 0.867 | 1.2 | 3.02 | 71.2 |
| CCCCn1c(=O)c2nnc(C3(C)CC3)n2c2ncc(CC)cc21 [Example 8, 5-butyl-3-ethyl-9-(1-methylcyclopropyl)pyrido[3,2-e][1,2,4]triazolo[4,3-a]pyrazin-6(5H)-one] | 2.14 ± 0.997 | 8.01 ± 3.55 | 9.34 ± 4.33 | 3.29 | 0.957 | > 100 |
| CCCCn1c(=O)c2nnc(C3(C4CC4)CC3)n2c2ncc(CC)cc21 [Example 9, 9-([1,1′-Bi(cyclopropan)]-1-yl)-5-butyl-3-ethylpyrido[3,2-e][1,2,4]triazolo[4,3-a]pyrazin-6(5H)-one] | < 0.5 |  |  |  | 0.675 |  |
| CCCCn1c(=O)c2nnc(C3(C4CC4)CC3)n2c2ncc(C(C)C)cc21 [Example 10, 9-([1,1′-bi(cyclopropan)]-1-yl)-5-butyl-3-isopropylpyrido[3,2-e][1,2,4]triazolo[4,3-a]pyrazin-6(5H)-one] | < 0.5 | 0.26 ± 0.589 | 0.396 ± 0.749 | 0.611 | 0.972 | > 100 |
| CCCCn1c(=O)c2nnc(C3(C4CC4)CC3)n2c2ncc(CO)cc21 [Example 11] | < 0.5 |  |  |  | 5.56 |  |
| CCCCn1c(=O)c2nnc(C3(C)CC3)n2c2ncc(CO)cc21 [Example 12, 5-Butyl-3-(hydroxymethyl)-9-(1-methylcyclopropyl)pyrido[3,2-e][1,2,4]triazolo[4,3-a]pyrazin-6(5H)-one] | 4.02 ± 0.167 | 23 ± 3.62 | 17.4 ± 10 | 3.06 ± 1.45 | 5.13 ± 2.14 | ≥ 93.4 |
| CCCCn1c(=O)c2nnc(C3(C4CC4)CC3)n2c2nc(C)ccc21 [Example 13, 9-([1,1′-bi(cyclopropan)]-1-yl)-5-butyl-2-methylpyrido[3,2-e][1,2,4]triazolo[4,3-a]pyrazin-6(5H)-one] | < 0.5 | 0.816 ± 0.198 | 1.13 ± 0.254 | 2.99 | 2.09 | 19.2 |
